What was measured:
[1] = biological target: T1, Sodium-dependent dopamine transporter (Homo sapiens, UniProt Q01959); experiment: GPCRScan assay: inhibition of DAT; design: radioligand conc. used [nm] 3.6 – 16.0, parental cells stable HEK
[2] = biological target: T2, Bifunctional epoxide hydrolase 2 (Homo sapiens, UniProt P34913); experiment: Human soluble epoxide hydrolase inhibition
T2 sequence (P34913 whole entry): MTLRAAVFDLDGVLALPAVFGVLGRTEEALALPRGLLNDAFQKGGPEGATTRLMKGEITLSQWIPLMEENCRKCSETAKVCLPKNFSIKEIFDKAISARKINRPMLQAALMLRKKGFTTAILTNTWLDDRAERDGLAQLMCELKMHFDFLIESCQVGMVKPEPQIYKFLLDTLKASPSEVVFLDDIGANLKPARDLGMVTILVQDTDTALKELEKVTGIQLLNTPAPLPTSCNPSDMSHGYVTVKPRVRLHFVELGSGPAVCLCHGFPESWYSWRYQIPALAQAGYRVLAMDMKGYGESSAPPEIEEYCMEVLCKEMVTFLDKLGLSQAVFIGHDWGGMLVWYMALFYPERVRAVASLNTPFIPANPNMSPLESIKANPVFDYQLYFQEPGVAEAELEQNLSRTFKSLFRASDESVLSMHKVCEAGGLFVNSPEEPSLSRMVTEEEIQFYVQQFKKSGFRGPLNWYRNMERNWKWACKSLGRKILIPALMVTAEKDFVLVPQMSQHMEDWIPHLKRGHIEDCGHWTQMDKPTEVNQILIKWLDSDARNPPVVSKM

[3] = biological target: 5-hydroxytryptamine receptor 1A (Homo sapiens) (UniProt P08908); conditions: Compound concentration 10.0 uM
[4] = biological target: 5-hydroxytryptamine receptor 1B (Homo sapiens) (UniProt P28222); conditions: Compound concentration 10.0 uM
[5] = biological target: 5-hydroxytryptamine receptor 1D (Homo sapiens) (UniProt P28221); conditions: Compound concentration 10.0 uM
[6] = biological target: 5-hydroxytryptamine receptor 1E (Homo sapiens) (UniProt P28566); conditions: Compound concentration 10.0 uM
[7] = biological target: 5-hydroxytryptamine receptor 2A (Homo sapiens) (UniProt P28223); conditions: Compound concentration 10.0 uM
[8] = biological target: 5-hydroxytryptamine receptor 2B (Homo sapiens) (UniProt P41595); conditions: Compound concentration 10.0 uM
[9] = biological target: T3, 5-hydroxytryptamine receptor 3A (Homo sapiens) (UniProt P46098); conditions: Compound concentration 10.0 uM
T3 sequence (whole entry): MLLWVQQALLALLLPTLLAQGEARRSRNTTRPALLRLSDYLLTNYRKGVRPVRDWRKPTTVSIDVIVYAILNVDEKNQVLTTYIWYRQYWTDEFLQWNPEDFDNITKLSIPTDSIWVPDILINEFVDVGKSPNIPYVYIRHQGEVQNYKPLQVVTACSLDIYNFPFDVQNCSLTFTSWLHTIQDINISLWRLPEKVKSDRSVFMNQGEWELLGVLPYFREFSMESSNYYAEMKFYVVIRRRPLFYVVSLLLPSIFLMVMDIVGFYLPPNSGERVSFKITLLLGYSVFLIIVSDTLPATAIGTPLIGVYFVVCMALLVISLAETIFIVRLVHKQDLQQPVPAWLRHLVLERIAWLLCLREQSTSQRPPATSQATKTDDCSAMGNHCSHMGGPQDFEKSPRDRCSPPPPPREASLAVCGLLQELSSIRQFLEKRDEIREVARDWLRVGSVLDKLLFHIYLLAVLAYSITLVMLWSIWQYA

[10] = biological target: 5-hydroxytryptamine receptor 5A (Homo sapiens) (UniProt P47898); conditions: Compound concentration 10.0 uM
[11] = biological target: 5-hydroxytryptamine receptor 7 (Homo sapiens) (UniProt P34969); conditions: Compound concentration 10.0 uM
[12] = biological target: D(1A) dopamine receptor (Homo sapiens) (UniProt P21728); conditions: Compound concentration 10.0 uM
[13] = biological target: D(2) dopamine receptor (Homo sapiens) (UniProt P14416); conditions: Compound concentration 10.0 uM
[14] = biological target: D(3) dopamine receptor (Homo sapiens) (UniProt P35462); conditions: Compound concentration 10.0 uM
[15] = biological target: Sodium-dependent serotonin transporter (Homo sapiens) (UniProt P31645); conditions: Compound concentration 10.0 uM
[16] = biological target: Sodium-dependent noradrenaline transporter (Homo sapiens) (UniProt P23975); conditions: Compound concentration 10.0 uM
[17] = biological target: T1, Sodium-dependent dopamine transporter; conditions: Compound concentration 10.0 uM
[18] = biological target: Mu-type opioid receptor (Homo sapiens) (UniProt P35372); conditions: Compound concentration 10.0 uM
[19] = biological target: Delta-type opioid receptor (Homo sapiens) (UniProt P41143); conditions: Compound concentration 10.0 uM
[20] = biological target: Kappa-type opioid receptor (Homo sapiens) (UniProt P41145); conditions: Compound concentration 10.0 uM
[21] = biological target: GABA-A receptor; anion channel (Rattus norvegicus) (UniProt O09028+P15431+P18506+P18508+P19969+P20236+P23574+P23576+P28471+P28473+P30191+P62813+P63079+P63138+Q91ZM7+Q9ES14); conditions: Compound concentration 10.0 uM
[22] = biological target: Histamine H1 receptor (Homo sapiens) (UniProt P35367); conditions: Compound concentration 10.0 uM
[23] = biological target: Histamine H2 receptor (Homo sapiens) (UniProt P25021); conditions: Compound concentration 10.0 uM
[24] = biological target: Histamine H3 receptor (Homo sapiens) (UniProt Q9Y5N1); conditions: Compound concentration 10.0 uM
[25] = biological target: Histamine H4 receptor (Homo sapiens) (UniProt Q9H3N8); conditions: Compound concentration 10.0 uM
[26] = biological target: Alpha-1A adrenergic receptor (Homo sapiens) (UniProt P35348); conditions: Compound concentration 10.0 uM
[27] = biological target: Alpha-1B adrenergic receptor (Homo sapiens) (UniProt P35368); conditions: Compound concentration 10.0 uM
[28] = biological target: Alpha-2A adrenergic receptor (Homo sapiens) (UniProt P08913); conditions: Compound concentration 10.0 uM
[29] = biological target: Alpha-2B adrenergic receptor (Homo sapiens) (UniProt P18089); conditions: Compound concentration 10.0 uM
[30] = biological target: Alpha-2C adrenergic receptor (Homo sapiens) (UniProt P18825); conditions: Compound concentration 10.0 uM
[31] = biological target: Beta-1 adrenergic receptor (Homo sapiens) (UniProt P08588); conditions: Compound concentration 10.0 uM
[32] = biological target: Beta-2 adrenergic receptor (Homo sapiens) (UniProt P07550); conditions: Compound concentration 10.0 uM
[33] = biological target: Muscarinic acetylcholine receptor M1 (Homo sapiens) (UniProt P11229); conditions: Compound concentration 10.0 uM
[34] = biological target: Muscarinic acetylcholine receptor M2 (Homo sapiens) (UniProt P08172); conditions: Compound concentration 10.0 uM
[35] = biological target: Muscarinic acetylcholine receptor M3 (Homo sapiens) (UniProt P20309); conditions: Compound concentration 10.0 uM
[36] = biological target: Muscarinic acetylcholine receptor M4 (Homo sapiens) (UniProt P08173); conditions: Compound concentration 10.0 uM
[37] = biological target: Muscarinic acetylcholine receptor M5 (Homo sapiens) (UniProt P08912); conditions: Compound concentration 10.0 uM
[38] = biological target: Beta-3 adrenergic receptor (Homo sapiens) (UniProt P13945); conditions: Compound concentration 10.0 uM
Rattus norvegicus = organism: Rattus norvegicus; conditions: Compound concentration 10.0 uM
[39] = biological target: Alpha-1D adrenergic receptor (Homo sapiens) (UniProt P25100); conditions: Compound concentration 10.0 uM
[40] = biological target: Sigma intracellular receptor 2 (Homo sapiens) (UniProt Q5BJF2); conditions: Compound concentration 10.0 uM
Sequence of Sigma intracellular receptor 2 (Homo sapiens) (Q5BJF2 whole entry): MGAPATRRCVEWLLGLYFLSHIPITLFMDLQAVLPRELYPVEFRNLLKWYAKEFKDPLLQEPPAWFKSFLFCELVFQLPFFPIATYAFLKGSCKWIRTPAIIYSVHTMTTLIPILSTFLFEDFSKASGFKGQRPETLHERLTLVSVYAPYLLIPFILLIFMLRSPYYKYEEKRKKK

T1 sequence (Q01959 whole entry): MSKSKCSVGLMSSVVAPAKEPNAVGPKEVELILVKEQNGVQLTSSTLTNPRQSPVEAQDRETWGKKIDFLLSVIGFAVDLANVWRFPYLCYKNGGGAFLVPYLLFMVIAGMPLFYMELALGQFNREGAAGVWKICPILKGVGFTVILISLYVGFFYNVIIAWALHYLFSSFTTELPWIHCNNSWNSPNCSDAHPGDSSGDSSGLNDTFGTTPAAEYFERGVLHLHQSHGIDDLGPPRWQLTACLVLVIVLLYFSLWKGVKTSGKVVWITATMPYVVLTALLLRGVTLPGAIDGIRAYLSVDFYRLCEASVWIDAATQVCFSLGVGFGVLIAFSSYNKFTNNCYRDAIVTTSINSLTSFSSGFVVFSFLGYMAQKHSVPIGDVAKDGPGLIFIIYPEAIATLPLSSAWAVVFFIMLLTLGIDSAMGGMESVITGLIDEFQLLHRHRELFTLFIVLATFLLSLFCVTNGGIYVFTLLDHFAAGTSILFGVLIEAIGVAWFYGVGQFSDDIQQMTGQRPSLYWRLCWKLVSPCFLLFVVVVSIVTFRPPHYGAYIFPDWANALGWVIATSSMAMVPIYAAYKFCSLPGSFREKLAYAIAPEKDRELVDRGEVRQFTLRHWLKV
Sequence of 5-hydroxytryptamine receptor 1A (Homo sapiens) (P08908 whole entry): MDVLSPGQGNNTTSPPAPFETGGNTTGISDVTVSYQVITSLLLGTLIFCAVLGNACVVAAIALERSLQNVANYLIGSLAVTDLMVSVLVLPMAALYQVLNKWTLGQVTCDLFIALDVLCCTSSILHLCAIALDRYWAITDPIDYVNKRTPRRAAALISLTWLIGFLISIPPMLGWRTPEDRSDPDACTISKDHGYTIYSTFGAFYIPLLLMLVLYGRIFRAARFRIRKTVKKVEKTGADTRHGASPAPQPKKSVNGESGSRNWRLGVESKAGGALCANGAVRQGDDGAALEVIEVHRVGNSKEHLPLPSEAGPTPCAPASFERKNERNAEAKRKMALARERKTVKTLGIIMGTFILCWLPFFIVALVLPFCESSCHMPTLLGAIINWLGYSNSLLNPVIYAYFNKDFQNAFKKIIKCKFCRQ
Sequence of Muscarinic acetylcholine receptor M3 (Homo sapiens) (P20309 whole entry, looked up): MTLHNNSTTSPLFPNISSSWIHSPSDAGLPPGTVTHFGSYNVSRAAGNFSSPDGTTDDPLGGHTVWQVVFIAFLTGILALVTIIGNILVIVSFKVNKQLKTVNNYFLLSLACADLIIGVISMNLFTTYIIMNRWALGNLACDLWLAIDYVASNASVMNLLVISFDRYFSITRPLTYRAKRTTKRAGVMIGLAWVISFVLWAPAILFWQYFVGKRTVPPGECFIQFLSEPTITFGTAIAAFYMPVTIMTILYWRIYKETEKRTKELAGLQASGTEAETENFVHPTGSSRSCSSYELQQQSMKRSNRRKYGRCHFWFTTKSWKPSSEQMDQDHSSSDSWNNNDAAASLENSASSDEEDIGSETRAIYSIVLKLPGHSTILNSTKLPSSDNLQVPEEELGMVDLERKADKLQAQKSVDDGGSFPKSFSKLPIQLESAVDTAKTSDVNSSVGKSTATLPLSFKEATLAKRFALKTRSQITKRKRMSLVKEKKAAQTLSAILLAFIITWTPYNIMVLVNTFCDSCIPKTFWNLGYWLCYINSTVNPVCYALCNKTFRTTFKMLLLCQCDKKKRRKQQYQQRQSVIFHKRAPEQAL
Sequence of Beta-1 adrenergic receptor (Homo sapiens) (P08588 whole entry, looked up): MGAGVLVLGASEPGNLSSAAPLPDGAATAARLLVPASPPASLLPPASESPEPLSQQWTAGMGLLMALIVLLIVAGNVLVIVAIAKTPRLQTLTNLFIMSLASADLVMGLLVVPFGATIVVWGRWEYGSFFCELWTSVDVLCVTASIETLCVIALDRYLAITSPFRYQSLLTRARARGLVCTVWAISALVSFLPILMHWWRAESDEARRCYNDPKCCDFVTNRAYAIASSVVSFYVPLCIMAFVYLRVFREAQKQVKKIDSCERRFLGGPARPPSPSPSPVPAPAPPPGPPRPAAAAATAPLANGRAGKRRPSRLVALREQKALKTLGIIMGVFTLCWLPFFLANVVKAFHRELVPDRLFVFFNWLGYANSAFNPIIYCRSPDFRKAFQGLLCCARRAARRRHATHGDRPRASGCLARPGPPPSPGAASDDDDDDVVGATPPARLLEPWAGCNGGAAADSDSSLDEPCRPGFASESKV
Sequence of Histamine H1 receptor (Homo sapiens) (P35367 whole entry): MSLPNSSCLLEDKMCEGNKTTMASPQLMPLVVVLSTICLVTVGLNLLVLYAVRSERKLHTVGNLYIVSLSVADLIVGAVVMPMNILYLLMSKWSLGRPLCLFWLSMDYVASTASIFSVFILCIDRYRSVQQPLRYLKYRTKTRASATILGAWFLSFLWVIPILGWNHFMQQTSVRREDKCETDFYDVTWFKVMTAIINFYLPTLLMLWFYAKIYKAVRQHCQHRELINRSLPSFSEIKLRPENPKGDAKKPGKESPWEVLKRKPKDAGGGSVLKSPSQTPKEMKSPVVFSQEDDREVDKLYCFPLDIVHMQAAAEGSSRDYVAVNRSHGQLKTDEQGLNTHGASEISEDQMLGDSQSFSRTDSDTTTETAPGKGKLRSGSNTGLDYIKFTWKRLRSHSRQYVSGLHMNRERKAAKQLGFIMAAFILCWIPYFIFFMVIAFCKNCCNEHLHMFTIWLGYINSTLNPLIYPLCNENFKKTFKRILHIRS
Sequence of Alpha-1A adrenergic receptor (Homo sapiens) (P35348 whole entry): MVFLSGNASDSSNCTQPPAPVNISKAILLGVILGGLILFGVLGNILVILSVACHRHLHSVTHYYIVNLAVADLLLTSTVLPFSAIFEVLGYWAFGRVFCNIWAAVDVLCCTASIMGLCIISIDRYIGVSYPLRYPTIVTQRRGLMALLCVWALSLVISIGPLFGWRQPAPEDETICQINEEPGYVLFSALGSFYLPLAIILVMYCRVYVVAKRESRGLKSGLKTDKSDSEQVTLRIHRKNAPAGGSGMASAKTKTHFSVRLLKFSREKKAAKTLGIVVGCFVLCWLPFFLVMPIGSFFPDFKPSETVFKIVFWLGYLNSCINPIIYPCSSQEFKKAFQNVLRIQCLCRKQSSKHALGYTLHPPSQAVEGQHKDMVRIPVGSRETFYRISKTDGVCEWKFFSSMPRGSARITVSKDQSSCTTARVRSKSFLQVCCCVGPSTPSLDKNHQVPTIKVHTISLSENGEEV
Sequence of Mu-type opioid receptor (Homo sapiens) (P35372 whole entry): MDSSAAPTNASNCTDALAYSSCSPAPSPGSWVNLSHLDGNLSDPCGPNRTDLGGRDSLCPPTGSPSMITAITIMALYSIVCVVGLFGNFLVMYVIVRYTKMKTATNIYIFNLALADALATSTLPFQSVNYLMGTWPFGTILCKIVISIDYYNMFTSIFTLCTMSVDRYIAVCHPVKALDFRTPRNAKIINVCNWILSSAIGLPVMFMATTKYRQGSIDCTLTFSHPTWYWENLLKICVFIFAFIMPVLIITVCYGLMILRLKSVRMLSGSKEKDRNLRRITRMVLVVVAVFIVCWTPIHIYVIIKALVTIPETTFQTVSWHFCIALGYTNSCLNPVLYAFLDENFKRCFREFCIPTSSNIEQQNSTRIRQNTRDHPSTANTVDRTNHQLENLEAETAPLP
Sequence of D(1A) dopamine receptor (Homo sapiens) (P21728 whole entry): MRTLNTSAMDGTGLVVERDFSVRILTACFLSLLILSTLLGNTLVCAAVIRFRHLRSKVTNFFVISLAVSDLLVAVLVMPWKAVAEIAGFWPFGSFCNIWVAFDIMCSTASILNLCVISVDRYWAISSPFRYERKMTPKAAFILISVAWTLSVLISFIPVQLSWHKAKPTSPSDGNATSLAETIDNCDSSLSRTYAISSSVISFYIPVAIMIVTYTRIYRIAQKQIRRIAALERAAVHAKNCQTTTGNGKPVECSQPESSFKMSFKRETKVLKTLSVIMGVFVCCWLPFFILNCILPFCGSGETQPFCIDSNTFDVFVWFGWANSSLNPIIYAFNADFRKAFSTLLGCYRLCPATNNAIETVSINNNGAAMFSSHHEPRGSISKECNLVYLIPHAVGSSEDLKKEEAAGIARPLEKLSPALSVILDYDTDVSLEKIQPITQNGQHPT
Sequence of 5-hydroxytryptamine receptor 2A (Homo sapiens) (P28223 whole entry): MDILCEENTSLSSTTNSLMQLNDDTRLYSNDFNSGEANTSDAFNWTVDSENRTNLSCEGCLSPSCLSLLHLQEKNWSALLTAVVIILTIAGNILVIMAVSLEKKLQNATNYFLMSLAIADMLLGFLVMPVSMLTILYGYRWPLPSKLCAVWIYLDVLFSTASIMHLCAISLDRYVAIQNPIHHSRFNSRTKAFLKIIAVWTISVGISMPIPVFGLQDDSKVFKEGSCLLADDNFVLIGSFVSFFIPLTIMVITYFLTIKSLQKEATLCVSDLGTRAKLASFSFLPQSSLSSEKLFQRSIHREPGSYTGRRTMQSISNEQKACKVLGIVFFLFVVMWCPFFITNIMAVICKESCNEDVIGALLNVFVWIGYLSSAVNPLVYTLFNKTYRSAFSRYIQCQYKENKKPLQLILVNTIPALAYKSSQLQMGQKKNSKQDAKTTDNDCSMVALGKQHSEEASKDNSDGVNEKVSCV
Sequence of Histamine H2 receptor (Homo sapiens) (P25021 whole entry): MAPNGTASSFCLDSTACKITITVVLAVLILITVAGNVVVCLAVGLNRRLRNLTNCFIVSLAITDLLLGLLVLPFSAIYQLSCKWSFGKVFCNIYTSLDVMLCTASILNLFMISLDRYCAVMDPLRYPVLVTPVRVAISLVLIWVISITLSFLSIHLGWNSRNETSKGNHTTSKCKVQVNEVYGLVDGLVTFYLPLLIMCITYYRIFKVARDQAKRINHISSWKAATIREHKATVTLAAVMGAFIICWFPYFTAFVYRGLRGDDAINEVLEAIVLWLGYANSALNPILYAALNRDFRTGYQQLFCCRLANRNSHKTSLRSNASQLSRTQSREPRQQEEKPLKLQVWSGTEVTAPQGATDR

pKi [1]: < 5 | Ki ([1]; read-out: Ki): > 10 µM | IC50 [2]: > 3 µM (not active) | inhibition [3]: -3.06% | inhibition [4]: -0.85% | inhibition [5]: -9.83% | inhibition [6]: -4.45% | inhibition [7]: -1.62% | inhibition [8]: 9.91% | inhibition [9]: -8.89% | inhibition [10]: -2.92% | inhibition [11]: 6.21% | inhibition [12]: 4.32% | inhibition [13]: -9.24% | inhibition [14]: 8.38% | inhibition [15]: 9.16% | inhibition [16]: -9.35% | inhibition [17]: 68.2% | inhibition [18]: 7.17% | inhibition [19]: 3.77% | inhibition [20]: 13.8% | inhibition [21]: 16.1% | inhibition [22]: 3.07% | inhibition [23]: -5.62% | inhibition [24]: -1.54% | inhibition [25]: -9.32% | inhibition [26]: 1.9% | inhibition [27]: -3.49% | inhibition [28]: 8.3% | inhibition [29]: 1.26% | inhibition [30]: 6.33% | inhibition [31]: 0.23% | inhibition [32]: 5.14% | inhibition [33]: 25.5% | inhibition [34]: 9.94% | inhibition [35]: 3.71% | inhibition [36]: 0.8% | inhibition [37]: 0.37% | inhibition [38]: -0.78% | inhibition (Rattus norvegicus): 15% | inhibition [39]: 18.3% | inhibition [40]: 30.1%
Structure (SMILES): O=C(Nc1ccc(-n2nc(-c3cccnc3)cc2C(F)(F)F)cn1)c1ccc(-c2ccccc2)c(F)c1 [BI 2049]

Reference: ChEMBL document CHEMBL4507283, “Data for DCP probe BI-1935” (2021)
